# Results reported in patent US20070249670A1, “Glycogen Phosphorylase Inhibitor Compounds and Pharmaceutical Compositions Thereof” (SMITHKLINE BEECHAM CORPORATION, priority 2004, published 2007).
# Molecular target: T1, human liver glycogen phosphorylase a (HLGPa) (Homo sapiens, UniProt P06737)
# T1 construct: creating a full-length cDNA fused at the 5′ end to codons for methionine-glycine-alanine-histidine; 6xHis tag (leader Met-Gly-Ala-His6-Gly-Gly) (N); made in house; host or cells: E. coli (bacterial expression plasmid pTXK1007LTev)
# T1 sequence (P06737 2-847 limits assumed): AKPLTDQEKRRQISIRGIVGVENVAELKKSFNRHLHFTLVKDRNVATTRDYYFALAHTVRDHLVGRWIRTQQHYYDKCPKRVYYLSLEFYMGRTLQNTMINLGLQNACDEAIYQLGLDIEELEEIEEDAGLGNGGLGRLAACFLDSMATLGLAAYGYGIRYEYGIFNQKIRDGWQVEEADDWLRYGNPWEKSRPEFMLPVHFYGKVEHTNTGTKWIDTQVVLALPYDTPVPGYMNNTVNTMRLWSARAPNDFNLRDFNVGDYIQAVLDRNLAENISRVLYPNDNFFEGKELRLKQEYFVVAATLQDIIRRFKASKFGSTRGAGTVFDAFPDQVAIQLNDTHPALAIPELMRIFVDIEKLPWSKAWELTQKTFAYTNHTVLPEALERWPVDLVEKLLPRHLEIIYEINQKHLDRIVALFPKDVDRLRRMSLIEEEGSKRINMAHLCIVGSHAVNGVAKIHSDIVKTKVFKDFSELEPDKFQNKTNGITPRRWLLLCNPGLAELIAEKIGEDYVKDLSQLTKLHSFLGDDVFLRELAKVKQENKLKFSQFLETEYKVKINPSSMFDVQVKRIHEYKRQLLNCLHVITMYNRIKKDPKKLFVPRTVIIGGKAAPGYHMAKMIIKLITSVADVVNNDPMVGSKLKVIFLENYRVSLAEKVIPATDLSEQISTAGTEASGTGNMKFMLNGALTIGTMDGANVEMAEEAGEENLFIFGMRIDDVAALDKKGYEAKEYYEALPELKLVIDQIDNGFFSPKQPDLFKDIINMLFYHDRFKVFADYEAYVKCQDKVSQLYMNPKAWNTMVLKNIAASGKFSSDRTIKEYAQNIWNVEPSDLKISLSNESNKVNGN
# Experiment: Human liver glycogen phosphorylase a enzymatic activity assay (coupled, fluorescent resorufin readout, with and without 10 mM glucose)
# Type: biochemical
# Details: human liver glycogen phosphorylase a enzymatic activity assay
row,Structure (SMILES),IC50 [nM]
1,"Cc1cc(C2CC2)cc(C)c1NC(=O)Nc1cc(-c2cccc(F)c2)ccc1C(=O)N[C@H](C(=O)O)[C@@H](C)OC(C)(C)C [Example 530, N-{[3-({[(4-Cyclopropyl-2,6-dimethylphenyl)amino]carbonyl}amino)-3′-fluoro-4-biphenylyl]carbonyl}-O-(1,1-dimethylethyl)-L-threonine]",21
2,Cc1cc(C2CC2)cc(C)c1NC(=O)Nc1c(C(=O)N[C@H](C(=O)O)C2CCCCC2)ccc2ccccc12 [Example 531],19
3,"COc1ccc(-c2ccc(C(=O)N[C@H](C(=O)O)[C@@H](C)OC(C)(C)C)c(NC(=O)Nc3c(C)cc(C4CC4)cc3C)c2)cc1 [Example 532, N-{[3-({[(4-cyclopropyl-2,6-dimethylphenyl)amino]carbonyl}amino)-4′-(methyloxy)-4-biphenylyl]carbonyl}-O-(1,1-dimethylethyl)-L-threonine]",11
4,"Cc1cc(C)c(NC(=O)Nc2cc(-c3ccc(F)c(F)c3)sc2C(=O)NC2(C(=O)O)CCCCC2)c(C)c1 [Example 534, 1-({[5-(3,4-difluorophenyl)-3-({[(2,4,6-trimethylphenyl)amino]carbonyl}amino)-2-thienyl]carbonyl}amino)cyclohexanecarboxylic acid]",104
5,"Cc1cc(C)c(NC(=O)Nc2cc(-c3cc(F)c(F)c(F)c3)sc2C(=O)NC2(C(=O)O)CCCCC2)c(C)c1 [Example 535, 1-({[5-(3,4,5-trifluorophenyl)-3-({[(2,4,6-trimethylphenyl)amino]carbonyl}amino)-2-thienyl]carbonyl}amino) cyclohexanecarboxylic acid]",206

# These reach a lower IC50. Values come first.
row,IC50 [nM],Structure (SMILES)
1,3,"Cc1cc(C)c(NC(=O)Nc2cc(-c3ccc(F)cc3)ccc2C(=O)N[C@H](C(=O)O)[C@@H](C)OC(C)(C)C)c(C)c1 [Example 527, O-(1,1-Dimethylethyl)-N-{[4′-fluoro-3-({[(2,4,6-trimethylphenyl)amino]carbonyl}amino)-4-biphenylyl]carbonyl}-L-threonine]"
2,3,"Cc1cc(C)c(NC(=O)Nc2cc(-c3ccccc3)ccc2C(=O)N[C@H](C(=O)O)[C@@H](C)OC(C)(C)C)c(C)c1 [Example 528, O-(1,1-Dimethylethyl)-N-{[3-({[(2,4,6-trimethylphenyl)amino]carbonyl}amino)-4-biphenylyl]carbonyl}-L-threonine]"
3,2,"Cc1cc(C)c(NC(=O)Nc2cc(-c3ccccc3)ccc2C(=O)NC2(C(=O)O)CCCCCCC2)c(C)c1 [Example 529, 1-({[3-({[(2,4,6-Trimethylphenyl)amino]carbonyl}amino)-4-biphenylyl]carbonyl}amino)cyclooctanecarboxylic acid]"
4,3,"Cc1cc(C)c(NC(=O)Nc2cc(-c3ccc(Cl)cc3)sc2C(=O)NC2(C(=O)O)CCCCC2)c(C)c1 [Example 533, 1-({[5-(4-Chlorophenyl)-3-({[(2,4,6-trimethylphenyl)amino]carbonyl}amino)-2-thienyl]carbonyl}amino)cyclohexanecarboxylic acid]"
